According to EP4667458A1 (Kanaph Therapeutics Inc., priority 2023, dated 2024):
pIC50: −log10 of the molar value.

These compounds were tested against T1, KRAS^G12C::SOS1 (Homo sapiens, UniProt Q07889) (assay: KRAS G12C::SOS1 protein-protein interaction (PPI) inhibition assay (HTRF binding kit)).
T1 sequence (Q07889 1-1333): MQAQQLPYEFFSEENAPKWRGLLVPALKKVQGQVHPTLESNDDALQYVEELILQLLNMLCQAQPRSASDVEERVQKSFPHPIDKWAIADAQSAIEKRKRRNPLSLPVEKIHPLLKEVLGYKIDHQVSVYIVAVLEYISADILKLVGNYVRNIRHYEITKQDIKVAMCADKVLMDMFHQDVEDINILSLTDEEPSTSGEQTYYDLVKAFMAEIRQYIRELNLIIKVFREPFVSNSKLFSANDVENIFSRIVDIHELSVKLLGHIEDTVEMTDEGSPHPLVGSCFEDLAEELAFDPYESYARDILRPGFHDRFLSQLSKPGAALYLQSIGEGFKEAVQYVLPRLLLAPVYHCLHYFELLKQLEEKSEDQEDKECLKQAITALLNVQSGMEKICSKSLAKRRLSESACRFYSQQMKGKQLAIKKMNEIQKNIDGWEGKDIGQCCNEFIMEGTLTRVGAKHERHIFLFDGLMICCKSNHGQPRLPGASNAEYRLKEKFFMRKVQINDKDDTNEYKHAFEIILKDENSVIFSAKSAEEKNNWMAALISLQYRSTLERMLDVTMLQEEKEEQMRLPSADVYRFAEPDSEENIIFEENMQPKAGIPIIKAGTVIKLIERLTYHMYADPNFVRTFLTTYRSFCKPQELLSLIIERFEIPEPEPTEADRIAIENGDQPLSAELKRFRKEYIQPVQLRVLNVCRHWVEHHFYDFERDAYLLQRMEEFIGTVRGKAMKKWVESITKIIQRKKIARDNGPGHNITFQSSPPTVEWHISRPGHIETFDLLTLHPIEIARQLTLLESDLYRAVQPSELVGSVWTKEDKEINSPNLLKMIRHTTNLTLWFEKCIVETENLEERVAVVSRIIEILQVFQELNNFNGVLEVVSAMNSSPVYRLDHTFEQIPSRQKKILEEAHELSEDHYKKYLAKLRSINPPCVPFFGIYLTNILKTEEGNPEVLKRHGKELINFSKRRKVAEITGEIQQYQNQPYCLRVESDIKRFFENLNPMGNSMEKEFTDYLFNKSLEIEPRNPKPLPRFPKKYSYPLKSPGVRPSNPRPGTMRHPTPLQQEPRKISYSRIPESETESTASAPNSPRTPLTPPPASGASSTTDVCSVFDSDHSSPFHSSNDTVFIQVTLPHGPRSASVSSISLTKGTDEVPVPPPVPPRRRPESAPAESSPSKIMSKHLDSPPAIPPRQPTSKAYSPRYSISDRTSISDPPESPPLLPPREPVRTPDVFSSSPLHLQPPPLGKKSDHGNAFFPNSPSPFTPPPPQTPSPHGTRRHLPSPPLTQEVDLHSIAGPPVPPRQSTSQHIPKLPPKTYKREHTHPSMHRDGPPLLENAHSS
Protocol: Protein-protein interaction between SOS1 and KRAS^G12C was detected using KRAS G12C/SOS1 binding kit from CISBIO (64KRASG12PEH, CISBIO, FRANCE) according to the manufacturer's assay method. Briefly, the maximum concentration of an inhibitor sample was set to be 3 µM, and the inhibitor sample was diluted 7 times by 1/3, and samples having a total of 8 concentrations were prepared. In HTRF (Homogeneous Time-Resolved Fluorescence) exclusive 96-well low-volume white plate (66PL96005, CISBIO, FRANCE), 2 µL of an inhibitor sample prepared for each concentration, 5 µL of a mixed solution of Tag1-labeled KRAS^G12C protein and GTP diluted with the dilution solution provided by the manufacturer, and 5 µL of Tag2 labeled SOS1 protein were mixed, and added with 8 µL of a diluted solution where anti-Tag1 KRAS^G12C XL665 (HTRF acceptor) labeled antibody and anti-Tag2 SOS1 Terbium cryptate (HTRF donor) labeled antibody were mixed in an equal ratio and incubated at room temperature for 2 h.

pIC50	Compound
> 6.00	CNCc1cc(Cl)c(F)cc1-c1ccc([C@@H](C)NC(=O)c2ccc(=O)n(-c3cccnc3F)n2)s1 [Example 400, N-[(1R)-1-(5-{4-chloro-5-fluoro-2-[(methylamino)methyl]phenyl}thiophen-2-yl)ethyl]-1-(2-fluoropyridin-3-yl)-6-oxo-1,6-dihydropyridazine-3-carboxamide]
> 6.00	CCn1cc(-n2nc(C(=O)N[C@H](C)c3ccc(-c4cc(Cl)ccc4CNC)s3)ccc2=O)cn1 [Example 405]
> 6.00	COCC(F)(F)c1cccc([C@@H](C)NC(=O)c2ccc(=O)n(-c3cccc(-c4cnnn4C)c3)n2)c1F [Example 397]
> 6.00	CNCc1cc(F)c(Cl)cc1-c1ccc([C@@H](C)NC(=O)c2ccc(=O)n(-c3cccnc3F)n2)s1 [Example 399, N-[(1R)-1-(5-{5-chloro-4-fluoro-2-[(methylamino)methyl]phenyl}thiophen-2-yl)ethyl]-1-(2-fluoropyridin-3-yl)-6-oxo-1,6-dihydropyridazine-3-carboxamide]
> 6.00	C[C@@H](NC(=O)c1ccc(=O)n(-c2cccnc2F)n1)c1ccc(-c2cc(F)ccc2CC#N)s1 [Example 415, N-[(1R)-1-[5-[2-(cyanomethyl)-5-fluorophenyl]-2-thienyl]ethyl]-1-(2-fluoro-3-pyridyl)-6-oxo-pyridazine-3-carboxamide]
> 6.00	C[C@@H](NC(=O)c1ccc(=O)n(-c2ccn(C)n2)n1)c1cc(N)cc(C(F)(F)F)c1 [Example 387, N-[(1R)-1-[3-amino-5-(trifluoromethyl)phenyl]ethyl]-1-(1-methylpyrazol-3-yl)-6-oxo-pyridazine-3-carboxamide]
> 6.00	CNCc1cc(F)c(F)cc1-c1ccc([C@@H](C)NC(=O)c2ccc(=O)n(-c3cccnc3F)n2)s1 [Example 401, N-[(1R)-1-(5-{4,5-difluoro-2-[(methylamino)methyl]phenyl}thiophen-2-yl)ethyl]-1-(2-fluoropyridin-3-yl)-6-oxo-1,6-dihydropyridazine-3-carboxamide]
> 6.00	CNCc1ccc(C#N)cc1-c1ccc([C@@H](C)NC(=O)c2ccc(=O)n(-c3ccccc3F)n2)s1 [Example 410]

Further lines, the compound ahead of its results:

Compound	pIC50
C[C@@H](NC(=O)c1ccc(=O)n(-c2cnn(C)c2)c1)c1cccc(C(F)(F)CO)c1F [Example 164, N-[(1R)-1-[3-(1,1-difluoro-2-hydroxy-ethyl)-2-fluoro-phenyl]ethyl]-1-(1-methylpyrazol-4-yl)-6-oxo-pyridine-3-carboxamide]	> 6.00
C[C@@H](NC(=O)c1ccc(=O)n(-c2ccccc2F)n1)c1ccc(-c2ccccc2CO)s1 [Example 299, 1-(2-fluorophenyl)-N-[(1R)-1-[5-[2-(hydroxymethyl)phenyl]-2-thienyl]ethyl]-6-oxo-pyridazine-3-carboxamide]	5.00 to 6.00
COc1ccc(-n2cc(C(=O)N[C@H](C)c3cc(N)cc(C(F)(F)F)c3)ccc2=O)c(F)c1 [Example 180, N-[(1R)-1-[3-amino-5-(trifluoromethyl)phenyl]ethyl]-1-(2-fluoro-4-methoxy-phenyl)-6-oxo-pyridine-3-carboxamide]	> 6.00
Cc1cc(C(=O)N[C@H](C)c2cc(N)cc(C(F)(F)F)c2)nn(-c2ccccc2)c1=O [Example 214, N-[(1R)-1-[3-amino-5-(trifluoromethyl)phenyl]ethyl]-5-methyl-6-oxo-1-phenyl-pyridazine-3-carboxamide]	> 6.00
C[C@@H](NC(=O)c1ccc(=O)n(-c2ccc3c(c2)COC3)n1)c1cc(N)cc(C(F)(F)F)c1 [Example 208, N-[(1R)-1-[3-amino-5-(trifluoromethyl)phenyl]ethyl]-1-(1,3-dihydroisobenzofuran-5-yl)-6-oxo-pyridazine-3-carboxamide]	> 6.00
C[C@@H](NC(=O)c1nn(-c2ccccc2)c(=O)c2ccsc12)c1cc(N)cc(C(F)(F)F)c1 [Example 317, N-[(1R)-1-[3-amino-5-(trifluoromethyl)phenyl]ethyl]-4-oxo-5-phenyl-thieno[2,3-d]pyridazine-7-carboxamide]	> 6.00
C[C@@H](NC(=O)c1ccc(=O)n(-c2cccc(C(=O)N(C)C)c2)c1)c1cc(N)cc(C(F)(F)F)c1 [Example 166, N-[(1R)-1-[3-amino-5-(trifluoromethyl)phenyl]ethyl]-1-[3-(dimethylcarbamoyl)phenyl]-6-oxo-pyridine-3-carboxamide]	> 6.00
COc1ccc(-n2cc(C(=O)N[C@H](C)c3cc(N)cc(C(F)(F)F)c3)ccc2=O)cc1 [Example 199, N-[(1R)-1-[3-amino-5-(trifluoromethyl)phenyl]ethyl]-1-(4-methoxyphenyl)-6-oxo-pyridine-3-carboxamide]	> 6.00
C[C@@H](NC(=O)c1ccc(=O)n(-c2cccc(-c3cccc(=O)n3C)c2)n1)c1cc(N)cc(C(F)(F)F)c1 [Example 351, N-[(1R)-1-[3-amino-5-(trifluoromethyl)phenyl]ethyl]-1-[3-(1-methyl-6-oxo-2-pyridyl)phenyl]-6-oxo-pyridazine-3-carboxamide]	> 6.00
CNCc1ccccc1-c1ccc([C@@H](C)NC(=O)c2nn(-c3cnn(C)c3)c(=O)c3ccsc23)s1 [Example 290, N-[(1R)-1-[5-[2-(methylaminomethyl)phenyl]-2-thienyl]ethyl]-5-(1-methylpyrazol-4-yl)-4-oxo-thieno[2,3-d]pyridazine-7-carboxamide]	> 6.00
C[C@@H](NC(=O)c1ccc(=O)n(-c2cccc(-c3ccon3)c2)n1)c1cc(N)cc(C(F)(F)F)c1 [Example 376, N-[(1R)-1-[3-amino-5-(trifluoromethyl)phenyl]ethyl]-1-(3-isoxazol-3-ylphenyl)-6-oxo-pyridazine-3-carboxamide]	> 6.00
CNCc1ccsc1-c1cccc([C@@H](C)NC(=O)c2ccc(=O)n(-c3ccccc3F)n2)c1 [Example 294, 1-(2-fluorophenyl)-N-[(1R)-1-[3-[3-(methylaminomethyl)-2-thienyl]phenyl]ethyl]-6-oxo-pyridazine-3-carboxamide]	> 6.00
C[C@@H](NC(=O)c1ccc(=O)n(-c2ccccc2F)n1)c1cccc(C(F)(F)F)c1F [Example 259, 1-(2-fluorophenyl)-N-[(1R)-1-[2-fluoro-3-(trifluoromethyl)phenyl]ethyl]-6-oxo-pyridazine-3-carboxamide]	> 6.00
C[C@@H](NC(=O)c1ccc(=O)n(-c2cccc(-c3nccs3)c2)n1)c1cc(N)cc(C(F)(F)F)c1 [Example 337, N-[(1R)-1-[3-amino-5-(trifluoromethyl)phenyl]ethyl]-6-oxo-1-(3-thiazol-2-ylphenyl)pyridazine-3-carboxamide]	> 6.00
C[C@@H](NC(=O)c1ccc(=O)n(-c2ccccc2OC(F)F)n1)c1cc(N)cc(C(F)(F)F)c1 [Example 247, N-[(1R)-1-[3-amino-5-(trifluoromethyl)phenyl]ethyl]-1-[2-(difluoromethoxy)phenyl]-6-oxo-pyridazine-3-carboxamide]	> 6.00
C[C@@H](NC(=O)c1ccc(=O)n(-c2cccc(-c3cccnc3)c2)n1)c1cc(N)cc(C(F)(F)F)c1 [Example 338, N-[(1R)-1-[3-amino-5-(trifluoromethyl)phenyl]ethyl]-6-oxo-1-[3-(3-pyridyl)phenyl]pyridazine-3-carboxamide]	> 6.00
